The text below walks through data of patent US7884195B2, “Method of extracting ginsengnoside Rg2m, pharmaceutical composition including ginsengnoside Rg2, and uses thereof” (priority 2005, dated 2011).

One assay relates to C-fos. Kind of assay: Expression of C-fos in hippocampus, Aβ1-40 dementia model. The format is in vivo, rat. Conditions: nimodipine 0.05 mg·kg^−1 i.v., 7 days; 10 rats per group. The procedure: (§1) This experiment was carried out employing an Alzheimer Dementia (AD) model. 70 rats were divided into 7 groups consisting of 10 rats each and were anesthetized with chloral hydrate. Except for a placebo group, the remaining 6 groups were rendered dementia models by injecting 4 μg of beta-amyloid (Aβ1-40) and 1 μg of Ibotenic acid (IBA) into the hippocampus CA1 region of each rat. The placebo group was infused with an equal amount of physiological saline, instead of beta-amyloid and Ibotenic acid (IBA).
(§2) The above-mentioned dementia model groups were subdivided into a control group to which physiological saline was administered, four experimental groups to which ginsenoside Rg2 was administered and a comparative group to which a medical dementia therapeutic agent, nimodipine was administered. Each group received the corresponding respective reagents via intravenous injection for 7 days, once a day, according to the dosages set forth in Table 7 below. Herein, reagents, which are administered to experimental groups, are isomeric C-20(S) ginsenoside Rg2 and C-20(R) ginsenoside Rg2, and mixed-type C-20(SR) ginsenoside Rg2 (in the following Tables, referred to as S, R and SR, respectively).
(§3) In addition, 24 hours after examination of learning-memory ability, the front and rear of the injected site of the hippocampus CA1 region were successively sliced and subjected to Niss1 staining, HE staining, and chemical examination of immune tissues and in situ cell death, thereby observing morphological changes of hippocampus neuron cell zones, necrosis, degree of cell loss, rate of cell death, and degree of expression of Bax/Bcl-2 and C-fos genes.

In the next assay the test system is PC12 cells. Kind of assay: MTT metabolism after glutamic acid damage of PC12 cells. The format is cell-based. Particulars: nimodipine 5 pmol; 1 mmol/L glutamic acid, 20 hours; OD at 490 nm. The procedure:
100 μl/well of PC12 culture having a cell density of 10^5 cells/mL was inoculated into a 96-well plate and PC12 cells were allowed to adhere to walls of the plate. Wells were divided into 6 groups to which 6 wells were assigned each.
A serum-free medium was added to a non-treatment group, 1 mmol/L of a serum-free medium containing glutamic acid and an equal volume (1 mmol/L) of 20% 1,2-polyethylene glycol were added to a control group, 1 mmol/L of a serum-free medium containing glutamic acid and 0.1 mmol/L of respective structures of ginsenoside Rg2 were added to experimental groups, and 5 pmol of nimodipine, instead of ginsenoside Rg2, was added to a comparative group. Then, PC12 cells of respective groups were cultured at 37° C. for 20 hours.
20 μl/well of MTT (5 g/L) was added to respective groups and cells were continuously cultured at 37° C. for 4 hours. Then, the original medium was aspirated, and 0.1 ml/well of dimethyl sulfoxide (DMSO) was added to dissolve red granules. Next, optical density (OD) at 490 nm was measured using an enzyme-linked immuno-assay and then a t-test was made between groups.

Assay [1] has as its system Alzheimer Dementia (AD) model rats injected with beta-amyloid (Aβ1-40) and Ibotenic acid (IBA). Kind of assay: Y-shaped electronic maze test of learning-memory ability, beta-amyloid (Aβ1-40) dementia model. The format is in vivo, rat. Conditions: nimodipine 0.05 mg·kg^−1 i.v., once a day, 7 days. Also noted: key: number of stimuli needed for 9-10 successive correct responses. The procedure:
as §1
The above-mentioned dementia model groups were subdivided into a control group to which physiological saline was administered, four experimental groups to which ginsenoside Rg2 was administered and a comparative group to which a medical dementia therapeutic agent, nimodipine was administered. Each group received the corresponding respective reagents via intravenous injection for 7 days, once a day, according to the dosages set forth in Table 7 below. […]
On day 6 of respective reagent administration, animals were subjected to a Y-shaped electronic maze test. Learning-memory ability of rats was determined according to the following method. […] After 24 hours, the stimulus times necessary for 9 to 10-time successive and exact response of rats were recorded again as the order of memory. […]

In assay [2] the test system is hippocampus CA1 nerve cell bodies. In words: Niss1 staining, loss of nerve cell bodies, Aβ1-40 dementia model. The format is in vivo, rat. Particulars: nimodipine 0.05 mg·kg^−1 i.v., once a day, 7 days. The procedure: as §1
as §2, with “respectively). […]” for “respectively).”

A further assay deals with glutamate (Glu). In words: Glu-positive neurons in CPU region, MID model. The format is in vivo, rat. Conditions: nimodipine 0.05 mg·kg^−1 i.v., once a day, 7 days. The method, then: (§4) This experiment was carried out employing a multiple infarct dementia (MID) model. 56 rats were divided into 7 groups consisting of 8 rats each and were anesthetized with 10% chloral hydrate. Except for a placebo group, the remaining 6 groups were established as dementia models by injecting 0.13 ml/100 g of a composite thrombosis-inducing agent into the carotid artery of each rat, restoring anatomical structures thereof and suturing skins along layers. The placebo group was injected with an equal amount of physiological saline, instead of the composite thrombosis-inducing agent.
as §2, with “The above” for “The above-mentioned”, “to” for “to the”, “Table 12” for “Table 7”, “following experiments,” for “following Tables,”, “respectively). […]” for “respectively).”

The subject of assay [3] is multiple infarct dementia (MID) model rats. In words: Y-shaped electronic maze test of learning-memory ability, multiple infarct dementia (MID) model. The format is in vivo, rat. Also noted: key: stimuli needed for 9-10 successive correct responses (memory: 24 h later). Conditions: nimodipine 0.05 mg·kg^−1 i.v., once a day, 7 days. The method, then: On day 6 of respective reagent administration, animals were subjected to a Y-shaped electronic maze test. Learning-memory ability of rats was determined according to the following method. Firstly, the order of learning is taken as the number of stimulus times necessary for 9 to 10-time successive and exact response of rats. After 24 hours, the stimulus times necessary for 9 to 10-time successive and exact response of rats were recorded again as the order of memory. Based on the recordings thus obtained, a t-test was made between respective groups.
This experiment was carried out employing a multiple infarct dementia (MID) model. 56 rats were divided into 7 groups consisting of 8 rats each and were anesthetized with 10% chloral hydrate. Except for a placebo group, the remaining 6 groups were established as dementia models by injecting 0.13 ml/100 g of a composite thrombosis-inducing agent into the carotid artery of each rat, restoring anatomical structures thereof and suturing skins along layers. The placebo group was injected with an equal amount of physiological saline, instead of the composite thrombosis-inducing agent. […]
On day 6 of respective reagent administration, learning-memory ability of animals was determined according to the same manner as in Experimental Example 1.

The next assay deals with Bcl-2. In words: Expression of Bcl-2 in hippocampus, Aβ1-40 dementia model. The format is in vivo, rat. Conditions: nimodipine 0.05 mg·kg^−1 i.v., 7 days; 10 rats per group. The procedure:
as §1, §2, §3

The test system of a further assay is Caspase-3. In words: Caspase-3-positive neurons in CPU region, MID model. The format is in vivo, rat. Particulars: nimodipine 0.05 mg·kg^−1 i.v., once a day, 7 days. The method, then: as §4
as §2, with “The above” for “The above-mentioned”, “to” for “to the”, “Table 12” for “Table 7”, “following experiments,” for “following Tables,”, “respectively). […]” for “respectively).”

The next assay relates to hippocampus nerve cells. Kind of assay: TUNEL staining, in situ cell death (apoptosis), Aβ1-40 dementia model. The format is in vivo, rat. Conditions: nimodipine 0.05 mg·kg^−1 i.v., once a day, 7 days. The method, then: as §1
as §2, with “respectively). […]” for “respectively).”

Another assay concerns Calpain II. In words: Calpain II-positive neurons in CPU region, MID model. The format is in vivo, rat. Particulars: nimodipine 0.05 mg·kg^−1 i.v., once a day, 7 days. The procedure: as §4
as §2, with “The above” for “The above-mentioned”, “to” for “to the”, “Table 12” for “Table 7”, “following experiments,” for “following Tables,”, “respectively). […]” for “respectively).”

Assay [4] concerns Bax. In words: Expression of Bax in hippocampus, Aβ1-40 dementia model. The format is in vivo, rat. Particulars: nimodipine 0.05 mg·kg^−1 i.v., 7 days; 10 rats per group. The method, then: as §1, §2, §3
For assay [5], the system named is Bax. Kind of assay: Bax-positive neurons in CPU region, MID model. The format is in vivo, rat. Particulars: nimodipine 0.05 mg·kg^−1 i.v., once a day, 7 days. The procedure:
as §4
as §2, with “The above” for “The above-mentioned”, “to” for “to the”, “Table 12” for “Table 7”, “following experiments,” for “following Tables,”, “respectively). […]” for “respectively).”

SMILES strings stand for the structures. Marks after values point to notes of the source that are not given here.

For `COCCOC(=O)C1=C(C)NC(C)=C(C(=O)OC(C)C)C1c1cccc([N+](=O)[O-])c1` (centres unmarked) [Nimodipine, nimodipine, reference compound], in the assay with C-fos, the “Expression Intensity of C-fos, count at grade +” value is reported as 3; the “Expression Intensity of C-fos, count at grade ++” value was determined as 4; the “Expression Intensity of C-fos, count at grade +++” value is on record as 3*; the “Expression Intensity of C-fos, count at grade −” value came out at 0. Moreover, the “MTT (OD)” value with PC12 cells is recorded as 0.086 ± 0.017. Moreover, in assay [1] (24 hours after learning), the “Order of Memory” value was 4.10 ± 4.80. Further, the “Order of Learning” value in assay [1] (test on day 6) is reported as 8.60 ± 4.58. The “Length of nerve cell body loss” value in assay [2] is reported as 259.14 ± 60.36 μm. In the assay on glutamate (Glu), the “Number of Glu-positive cells” value is reported as 11.8 ± 3.89. Also, in assay [3], the “Order of Memory” value is 0.0 ± 0.0. In addition, in [3] (test on day 6), the “Order of Learning” value is recorded as 2.5 ± 3.70. Also, in the assay with Bcl-2, the “Expression Intensity of bcl-2, count at grade +” value turned out to be 5; the “Expression Intensity of bcl-2, count at grade ++” value worked out at 4; the “Expression Intensity of bcl-2, count at grade +++” value was 1**; the “Expression Intensity of bcl-2, count at grade −” value came to 0. The “Number of Caspase-3 positive cells” value in the assay on Caspase-3 came out at 2.3 ± 2.72. Besides, in the assay with hippocampus nerve cells, the “Rate of nerve cell death” value stood at 19.83 ± 2.93. In addition, in the assay with Calpain II, the “Number of Calpain II-positive cells” value is listed as 3.9 ± 0.67. In addition, in the assay with Bax [4], the “Expression Intensity of bax, count at grade +” value was found to be 7; the “Expression Intensity of bax, count at grade ++” value came to 3; the “Expression Intensity of bax, count at grade +++” value is recorded as 0**; the “Expression Intensity of bax, count at grade −” value is given as 0. Moreover, the “Number of Bax-positive cells” value in the assay on Bax [5] was found to be 3.2 ± 2.47.
